Source: USRE50663E1, “Heterocycle derivatives as pesticides” (Bayer Aktiengesellschaft, priority 2017, dated 2025)

Assays:
[1] = system: green peach aphid (Myzus persicae); assay: Comparative Myzus persicae drench test (MYZUPE D); assay type: in vivo; settings: soil, 240 h, 10 dat, read-out: % efficacy
Experimental: (§1) Solvent: 7 parts by weight of dimethylformamide
(§2) Emulsifier: 2 parts by weight of alkylaryl polyglycol ether
(§3) To produce a suitable active ingredient formulation, 1 part by weight of active ingredient is mixed with the specified amounts of solvent and emulsifier, and the concentrate is diluted with water to the desired concentration, it being necessary to take into account the volume of soil which is drenched. It should be ensured that a concentration of 40 ppm of emulsifier in the soil is not exceeded. To produce further test concentrations, water is used for dilution.
Savoy cabbage (Brassica oleracea) in pots with soil and infested by all stages of the green peach aphid (Myzus persicae) is watered with an active ingredient formulation of the desired concentration.
After the desired period of time, the efficacy in % is determined. 100% means that all the aphids have been killed; 0% means that no aphids have been killed.

[2] = system: larvae of the diamondback moth (Plutella xylostella); assay: Comparative Plutella xylostella spray test (PLUTMA); assay type: in vivo; settings: 168 h, 7 dat, read-out: % efficacy
Experimental: (§4) Solvent: 14 parts by weight of dimethylformamide
(§5) Emulsifier: alkylaryl polyglycol ether
(§6) To produce a suitable active compound formulation, 1 part by weight of active compound is dissolved with the specified parts by weight of solvent and made up to the desired concentration with water containing an emulsifier concentration of 1000 ppm. To produce further test concentrations, the formulation is diluted with emulsifier-containing water. If the addition of ammonium salts or/and penetrants is required, these are each added in a concentration of 1000 ppm to the formulation solution.
Cabbage leaves (Brassica oleracea) are sprayed with an active ingredient formulation of the desired concentration and infected with larvae of the diamondback moth (Plutella xylostella).
After the desired time, the kill in % is determined. 100% means that all caterpillars have been killed; 0% means that none of the caterpillars have been killed.

[3] = system: green peach aphids (Myzus persicae); assay: Myzus persicae oral test; assay type: in vivo; settings: 120 h, 4 ppm, after 5 days, read-out: efficacy
Experimental: Solvent: 100 parts by weight of acetone
To produce a suitable active compound formulation, 1 part by weight of active compound is dissolved with the stated parts by weight of solvent and made up to the desired concentration with water.
50 μl of the active compound formulation are transferred into microtitre plates and made up to a final volume of 200 μl with 150 μl of IPL41 insect medium (33%+15% sugar). Subsequently, the plates are sealed with parafilm, which a mixed population of green peach aphids (Myzus persicae) within a second microtitre plate is able to puncture and imbibe the solution.
After 5 days, the efficacy in % is determined. 100% means that all the aphids have been killed; 0% means that no aphids have been killed.

[4] = system: L2 larvae of the banded cucumber beetle (Diabrotica balteata); assay: Comparative Diabrotica balteata drench test (DIABBA D); assay type: in vivo; settings: soil, 192 h, 8 dat, read-out: % efficacy
Experimental: as §1, §2, §3
In each case 5 maize corns (Zea mays) are sown into pots filled with earth, and the next day the pots are watered with the active compound preparation of the desired concentration. After one day, about 25 L2 larvae of the banded cucumber beetle (Diabrotica balteata) are added.
After 8 days, the efficacy in % is determined. 100% means that all 5 plants have germinated and grown; 0% means that none of the plants has emerged.

[5] = system: green peach aphid (Myzus persicae); assay: Comparative Myzus persicae spray test (MYZUPE); assay type: in vivo; settings: 144 h, 6 dat, read-out: % efficacy
Experimental: as §4, §5, §6
Bell pepper plants (Capsicum annuum) severely infested with the green peach aphid (Myzus persicae) are treated by spraying with the active ingredient formulation in the desired concentration.
After the desired time, the kill in % is determined. 100% means that all the animals have been killed; 0% means that no animals have been killed.

[6] = system: adult dog ticks (Rhipicephalus sanguineus); assay: Rhipicephalus sanguineus in vitro contact test with adult brown dog ticks; assay type: in vivo; settings: application rate 5 μg/cm^2, after 48 h, dead or moribund ticks
Experimental: For the coating of the test tubes, 9 mg of active compound are first dissolved in 1 ml of acetone p.a. and then diluted to the desired concentration with acetone p.a. 250 μl of the solution are distributed homogeneously on the inner walls and the base of a 25 ml glass tube by turning and rocking on an orbital shaker (rocking rotation at 30 rpm for 2 h). With 900 ppm of active compound solution and internal surface area 44.7 cm^2, given homogeneous distribution, an area-based dose of 5 μg/cm^2 is achieved.
After the solvent has evaporated off, the tubes are populated with 5-10 adult dog ticks (Rhipicephalus sanguineus), sealed with a perforated plastic lid and incubated in a horizontal position in the dark at room temperature and ambient humidity. After 48 h, efficacy is determined. To this end, the ticks are knocked to the base of the tube and incubated on a hotplate at 45-50° C. for not more than 5 min. Ticks which remain motionless on the base or move in such an uncoordinated manner that they are unable to deliberately avoid the heat by climbing upwards are considered to be dead or moribund.
An efficacy of 100% means that all the ticks were dead or moribund. 0% efficacy means that none of the ticks were harmed.

[7] = logP by HPLC on reversed-phase column (C18), acidic range; assay type: physicochemical; settings: reversed-phase HPLC column (C18), formic acid in water/acetonitrile
Experimental: The logP values were determined according to EEC Directive 79/831 Annex V.A8 by HPLC (high-performance liquid chromatography) on a reversed-phase column (C18) using the following methods:
Calibration was carried out using a homologous series of straight-chain alkan-2-ones (having 3 to 16 carbon atoms) with known logP values. The values between successive alkanones are determined by linear regression.

## CCS(=O)(=O)c1c(-c2nc3cc(C(F)(F)F)cnc3n2C)nc2cc(C3(C#N)CC3)ccn12 [Example I-11, 1-{3-(Ethylsulfonyl)-2-[3-methyl-6-(trifluoromethyl)-3H-imidazo[4,5-b]pyridin-2-yl]imidazo[1,2-a]pyridin-7-yl}cyclopropanecarbonitrile]
[1]
  Emax at 0.8 ppm: 95%
[2]
  Emax at 0.16 ppm: 100%
[3]
  pest or weed control at 4 ppm: 90%
[4]; 0.8 ppm
  Emax at 0.8 ppm: 80%
[4]; 4 ppm
  Emax at 4 ppm: 100%
[5]
  Emax at 0.8 ppm: 90%
[6]
  efficacy: 100%
[7]
  chromatographic logP: 2.88
